From patent US8513271B2, “Pyrimidine compounds as delta opioid receptor modulators” (Janssen Pharmaceutica, NV, priority 2009, dated 2013)
Where two headings read alike, the source gives them in different places.

Assays:
delta opioid receptor [1] = target: T1, delta opioid receptor (Rattus norvegicus, UniProt P33533); test: Rat brain delta opioid receptor binding assay; conditions: δ-binding (Naltrindole ligand) Ki, rat forebrain, [3H]naltrindole ligand
T1 construct: the forebrains were homogenized in Tris buffer in a Teflon®-glass homogenizer; from tissue; host or cells: forebrain of male Wistar rats, particulate (membrane) preparation
T1 sequence (P33533 whole entry): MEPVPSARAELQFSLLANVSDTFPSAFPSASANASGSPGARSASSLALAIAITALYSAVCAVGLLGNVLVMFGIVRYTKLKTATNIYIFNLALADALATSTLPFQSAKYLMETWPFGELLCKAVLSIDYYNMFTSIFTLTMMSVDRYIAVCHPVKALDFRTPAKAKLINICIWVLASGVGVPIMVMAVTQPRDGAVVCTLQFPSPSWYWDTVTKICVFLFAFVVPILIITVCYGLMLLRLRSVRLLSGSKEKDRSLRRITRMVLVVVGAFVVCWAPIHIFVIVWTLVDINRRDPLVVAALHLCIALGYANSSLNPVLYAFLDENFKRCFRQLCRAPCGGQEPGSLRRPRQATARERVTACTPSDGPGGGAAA

mu opioid receptor = target: T2, mu opioid receptor (Rattus norvegicus, UniProt P33535); test: Rat brain mu opioid receptor binding assay; conditions: rat forebrain, [3H]DAMGO ligand
T2 construct: the forebrains were homogenized in Tris buffer in a Teflon®-glass homogenizer; from tissue; host or cells: forebrain of male Wistar rats, particulate (membrane) preparation
T2 sequence (P33535 whole entry): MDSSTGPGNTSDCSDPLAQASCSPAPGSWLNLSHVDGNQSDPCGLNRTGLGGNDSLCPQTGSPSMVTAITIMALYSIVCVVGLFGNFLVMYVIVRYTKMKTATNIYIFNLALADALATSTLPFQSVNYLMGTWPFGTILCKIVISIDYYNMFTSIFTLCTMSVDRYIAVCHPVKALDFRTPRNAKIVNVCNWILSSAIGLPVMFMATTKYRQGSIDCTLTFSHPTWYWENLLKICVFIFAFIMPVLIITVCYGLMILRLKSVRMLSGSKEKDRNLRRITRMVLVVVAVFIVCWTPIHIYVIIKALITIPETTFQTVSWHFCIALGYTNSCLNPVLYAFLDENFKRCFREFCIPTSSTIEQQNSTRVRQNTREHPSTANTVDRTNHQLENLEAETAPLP

delta opioid receptor [2] = target: T3, delta opioid receptor (Mus musculus, UniProt P32300); test: [35S]GTPγS binding assay in NG108-15 cell membranes (delta opioid functional assay), 200 nM screen; assay type: biochemical; conditions: NG108-15 cell membranes; for EC50 / GTPγS δ-RelEfficacy @200 nM: averages if tested more than once; for GTPγS δ-opioid receptor Rel Efficacy: relative efficacy from dose response; for GTPγS δ-RelEfficacy @200 nM: 200 nM test compound, relative to calculated max of SNC80 dose response curve
T3 construct: NG108-15 cell membranes were purchased from Applied Cell Sciences (Rockville, Md.); host or cells: NG108-15 cell membranes
T3 sequence (P32300 whole entry): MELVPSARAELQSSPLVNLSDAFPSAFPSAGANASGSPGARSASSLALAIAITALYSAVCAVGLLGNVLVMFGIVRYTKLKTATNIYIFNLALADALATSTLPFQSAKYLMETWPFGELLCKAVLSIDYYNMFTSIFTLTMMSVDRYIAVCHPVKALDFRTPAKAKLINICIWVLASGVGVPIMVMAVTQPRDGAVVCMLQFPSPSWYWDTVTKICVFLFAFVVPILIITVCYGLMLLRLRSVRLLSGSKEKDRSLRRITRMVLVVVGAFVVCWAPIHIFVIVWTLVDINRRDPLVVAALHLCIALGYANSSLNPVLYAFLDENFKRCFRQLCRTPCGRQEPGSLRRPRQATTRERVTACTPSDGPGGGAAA

delta opioid receptor [3] = target: T3, delta opioid receptor; test: NG108-15, 24-well delta opioid receptor binding assay
[4] = read-out: GTPγS δ-opioid receptor EC50
[5] = GTPγS δ-opioid receptor EC50 (μM)
[6] = [3H]Naltrindole ligand, NG108-15 cell membranes, read-out: δ-binding NG108 cell membrane Ki

Row | EC50 (delta opioid receptor [2]; [4]) [µM] | Ki (delta opioid receptor [3]; [6]) [µM] | SMILES | Ki (delta opioid receptor [1]) [µM] | GTPγS δ-opioid receptor Rel Efficacy (delta opioid receptor [2]) | other results
1 | – | – | COc1ccc(Oc2nc(-c3ccc4c(c3)OCO4)ncc2NC[C@@H]2CCCN2)cc1 [Cpd 93] | 0.008 | 1.115 | Ki (mu opioid receptor; μ-binding Ki): 0.554 µM; EC50 (delta opioid receptor [2]; [5]): 0.072 µM
2 | – | – | COc1cccc(Oc2nc(-c3cncc(C#N)c3)ncc2NC[C@@H]2CCCN2)c1 [Cpd 98] | 0.003 | – | Ki (mu opioid receptor; read-out: μ-binding Ki): 0.102 µM
3 | – | – | CCOc1ccc(Oc2nc(-c3cncc(C#N)c3)ncc2NC[C@@H]2CCCN2)cc1 [Cpd 104] | 0.008 | 0.921 | Ki (mu opioid receptor; μ-binding Ki): 0.19 µM; EC50 (delta opioid receptor [2]; [5]): 0.018 µM
4 | – | – | COc1ccc(Oc2nc(-c3cncnc3)ncc2NC2CCCNC2)cc1 (stereo not drawn) [Cpd 109] | 0.001 | 1.102 | Ki (mu opioid receptor; μ-binding Ki): 0.522 µM; EC50 (delta opioid receptor [2]; [5]): 0.057 µM
5 | – | – | N#Cc1cncc(-c2ncc(NC[C@@H]3CCCN3)c(Oc3ccc(OC(F)F)cc3)n2)c1 [Cpd 110] | 0.033 | 0.986 | Ki (mu opioid receptor; μ-binding Ki): 1.07 µM; EC50 (delta opioid receptor [2]; [5]): 0.081 µM
6 | – | – | CCCOc1ccc(Oc2nc(-c3cncc(C#N)c3)ncc2NC[C@@H]2CCCN2)cc1 [Cpd 113] | 0.045 | 1.104 | Ki (mu opioid receptor; μ-binding Ki): 1.43 µM; EC50 (delta opioid receptor [2]; [5]): 0.075 µM
7 | – | – | COc1ccc(Oc2nc(-c3cnc(C#N)nc3)ncc2NC[C@@H]2CCCN2)cc1 [Cpd 121] | 0.02 | 1.010 | Ki (mu opioid receptor; μ-binding Ki): 0.379 µM; EC50 (delta opioid receptor [2]; [5]): 0.019 µM
8 | 0.057 | 0.0004 | FC(F)(F)COc1ccc(Oc2nc(-c3cncnc3)ncc2NC[C@@H]2CCCN2)cc1 [Cpd 123] | – | 1.124 | GTPγS δ-RelEfficacy @200 nM (delta opioid receptor [2]): 0.653
9 | 0.453 | 0.0004 | Fc1cncc(-c2ncc(NC[C@@H]3CCCN3)c(Oc3ccc(Cl)cc3)n2)c1 [Cpd 128] | – | 1.144 | –
10 | 0.0551 | 0.0003 | N#Cc1cncc(-c2ncc(NC[C@@H]3CCCN3)c(Oc3ccc(Cl)cc3)n2)c1 [Cpd 129] | – | 0.976 | GTPγS δ-RelEfficacy @200 nM (delta opioid receptor [2]): 0.633
11 | – | 0.002 | Clc1ccc(Oc2nc(-c3cncnc3)ncc2NC[C@@H]2CCCN2)cc1 [Cpd 130] | – | – | GTPγS δ-RelEfficacy @200 nM (delta opioid receptor [2]): 0.245
12 | 0.076 | 0.0002 | COc1ccc(Oc2nc(-c3cncc(F)c3)ncc2NC[C@@H]2CCCN2)cc1F [Cpd 131] | – | 1.063 | GTPγS δ-RelEfficacy @200 nM (delta opioid receptor [2]): 0.819
13 | 0.028 | 0.0004 | COc1ccc(Oc2nc(-c3cncnc3)ncc2NC[C@@H]2CCCN2)cc1F [Cpd 133] | – | 1.041 | GTPγS δ-RelEfficacy @200 nM (delta opioid receptor [2]): 0.755
14 | – | 0.338 | O=C(c1ccc(Oc2nc(-c3cccnc3)ncc2NC[C@@H]2CCCN2)cc1)N1CCCCC1 [Cpd 160, Piperidin-1-yl-(4-{2-pyridin-3-yl-5-[(pyrrolidin-2-(S)-ylmethyl)-amino]-pyrimidin-4-yloxy}-phenyl)-methanone] | – | – | –
15 | – | 0.795 | O=C(c1ccc(Oc2nc(-c3cccnc3)ncc2NC[C@@H]2CCCN2)cc1)N1CCOCC1 [Cpd 161] | – | – | –
16 | – | 0.852 | CN1CCN(C(=O)c2ccc(Oc3nc(-c4cccnc4)ncc3NC[C@@H]3CCCN3)cc2)CC1 [Cpd 162] | – | – | –
17 | – | 2.28 | O=C(O)c1cccc(Oc2nc(-c3cncc(F)c3)ncc2NC[C@@H]2CCCN2)c1 [Cpd 164] | – | – | –
18 | – | 3.76 | O=C(O)c1ccc(Oc2nc(-c3cncc(F)c3)ncc2NC[C@@H]2CCCN2)cc1 [Cpd 165] | – | – | –
19 | – | 0.033 | CN1CCN(C(=O)c2cccc(Oc3nc(-c4cccnc4)ncc3NC[C@@H]3CCCN3)c2)CC1 [Cpd 169] | – | – | –
20 | – | – | COc1ccc(Oc2nc(-c3cncnc3)ncc2NC[C@@H](N)CC(C)C)cc1 [Cpd 295] | – | – | Ki (delta opioid receptor [3]): 0.064 µM

Row | SMILES | EC50 (delta opioid receptor [2]; [4]) [µM] | Ki (delta opioid receptor [3]; [6]) [µM] | Ki (delta opioid receptor [1]) [µM] | GTPγS δ-opioid receptor Rel Efficacy (delta opioid receptor [2]) | other results
21 | N#Cc1cncc(-c2ncc(NC[C@@H]3CCCN3)c(Oc3ccc4ncsc4c3)n2)c1 [Cpd 86] | 0.386 | – | 0.002 | – | Ki (mu opioid receptor; read-out: μ-binding Ki): 1.18 µM
22 | CCOc1ccc(Oc2nc(-c3cncnc3)ncc2NC[C@@H]2CCCN2)cc1 [Cpd 105] | 0.146 | – | 0.003 | – | Ki (mu opioid receptor; read-out: μ-binding Ki): 0.421 µM
23 | O=C(c1ccc(Oc2nc(-c3cccnc3)ncc2NC[C@@H]2CCCN2)cc1)N1CCCC1 [Cpd 158] | – | 1.6 | – | – | –
24 | O=C(O)c1ccc(Oc2nc(-c3cccnc3)ncc2NC[C@@H]2CCCN2)cc1 [Cpd 159] | – | 4.45 | – | – | –
25 | O=C(O)c1cccc(Oc2nc(-c3cccnc3)ncc2NC[C@@H]2CCCN2)c1 [Cpd 163] | – | 6.39 | – | – | –
26 | COc1ccc(Oc2nc(-c3cncc(C#N)c3)ncc2NC[C@H]2CCCC[C@@H]2N)cc1 [Cpd 299] | 0.129 | – | 0.023 | – | Ki (mu opioid receptor; read-out: μ-binding Ki): 0.222 µM
